The source of these data is article PMC9532755, “Impact of lactisole on the time-intensity profile of selected sweeteners in dependence of the binding site” (Food Chemistry: X, 2022).

Assay [1] concerns the target T1, human sweet taste receptor TAS1R2/TAS1R3 (Homo sapiens, UniProt Q7RTX0+Q8TE23).
T1 construct: expressed in transfected cells; host or cells: HEK293 Flp-In T-Rex cells; Gα15Gi3 and TAS1R2 constitutive, TAS1R3 tetracycline-inducible
T1 sequence (Q8TE23 20-839): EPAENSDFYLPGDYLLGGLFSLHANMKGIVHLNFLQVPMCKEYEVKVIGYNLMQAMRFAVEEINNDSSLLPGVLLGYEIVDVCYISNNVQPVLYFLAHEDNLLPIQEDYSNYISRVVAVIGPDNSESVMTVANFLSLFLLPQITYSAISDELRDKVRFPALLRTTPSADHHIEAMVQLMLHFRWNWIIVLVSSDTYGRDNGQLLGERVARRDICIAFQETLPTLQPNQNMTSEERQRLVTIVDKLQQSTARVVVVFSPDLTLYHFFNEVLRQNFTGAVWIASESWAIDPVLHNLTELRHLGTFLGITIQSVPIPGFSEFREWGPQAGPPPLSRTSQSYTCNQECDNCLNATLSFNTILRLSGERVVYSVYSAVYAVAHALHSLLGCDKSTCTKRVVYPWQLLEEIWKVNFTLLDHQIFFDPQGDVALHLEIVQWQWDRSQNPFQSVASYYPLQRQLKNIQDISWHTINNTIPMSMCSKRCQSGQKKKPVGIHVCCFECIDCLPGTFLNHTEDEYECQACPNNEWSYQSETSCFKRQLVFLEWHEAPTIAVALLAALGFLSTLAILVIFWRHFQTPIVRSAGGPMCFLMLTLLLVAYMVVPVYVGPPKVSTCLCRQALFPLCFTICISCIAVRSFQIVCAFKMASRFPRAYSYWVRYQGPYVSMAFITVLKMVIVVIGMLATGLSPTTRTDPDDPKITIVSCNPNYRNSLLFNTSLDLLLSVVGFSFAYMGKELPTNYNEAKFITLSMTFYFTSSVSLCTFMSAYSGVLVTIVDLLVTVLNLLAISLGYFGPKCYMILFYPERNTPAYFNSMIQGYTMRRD
T1 sequence (Q7RTX0 21-852): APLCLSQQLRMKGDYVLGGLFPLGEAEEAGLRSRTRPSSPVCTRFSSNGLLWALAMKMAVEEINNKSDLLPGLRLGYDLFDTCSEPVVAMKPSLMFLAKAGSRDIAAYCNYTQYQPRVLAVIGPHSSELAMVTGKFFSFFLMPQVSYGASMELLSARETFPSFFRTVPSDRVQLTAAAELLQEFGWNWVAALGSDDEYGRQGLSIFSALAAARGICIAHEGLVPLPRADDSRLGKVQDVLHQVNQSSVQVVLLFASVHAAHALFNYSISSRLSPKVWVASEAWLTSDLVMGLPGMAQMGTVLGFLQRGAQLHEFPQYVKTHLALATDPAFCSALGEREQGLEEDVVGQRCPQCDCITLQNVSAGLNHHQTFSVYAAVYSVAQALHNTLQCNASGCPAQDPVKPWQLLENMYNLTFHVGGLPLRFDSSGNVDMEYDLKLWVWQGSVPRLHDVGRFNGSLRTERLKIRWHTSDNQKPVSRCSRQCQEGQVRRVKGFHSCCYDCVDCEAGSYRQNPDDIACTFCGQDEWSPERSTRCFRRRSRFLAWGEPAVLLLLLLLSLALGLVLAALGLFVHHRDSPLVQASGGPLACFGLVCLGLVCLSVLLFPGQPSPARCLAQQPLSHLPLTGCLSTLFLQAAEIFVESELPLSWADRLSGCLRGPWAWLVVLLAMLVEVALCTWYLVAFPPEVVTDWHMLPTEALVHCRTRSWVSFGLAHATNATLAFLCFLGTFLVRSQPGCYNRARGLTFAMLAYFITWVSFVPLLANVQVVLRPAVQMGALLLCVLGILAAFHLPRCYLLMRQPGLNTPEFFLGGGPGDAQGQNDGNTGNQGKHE
In words: Calcium mobilization assay in HEK293 Flp-In T-Rex-Gα15Gi3-TAS1R2/TAS1R3 cells (FLIPR, Fluo-4). Format: cell-based. The conditions noted are these: for mode of inhibition by lactisole (shift of dose-response curve), cell experiments: combination with 10, 30, 100 μM lactisole; for time until reaching peak activity after agonist application / time where signal decreased below 50 % of the maximum signal amplitude, after agonist application: counted from agonist application at 20 sec; for time until reaching peak activity after agonist application / time where signal decreased below 50 % of the maximum signal amplitude, after agonist application / time until reaching the peak amplitude / time where signal decreased below 50 % of the maximum signal amplitude / time of signal decay back to baseline / time signal stayed above initial baseline: 1 mM Ace K, 3 mM aspartame, 10 mM cyclamate, 0.3 mM NHDC; for time until reaching the peak amplitude: including 20 sec of baseline monitoring prior to agonist application; for time where signal decreased below 50 % of the maximum signal amplitude: including 20 sec of baseline monitoring; for time of signal decay back to baseline / time signal stayed above initial baseline: raw fluorescence traces; for EC50: w/o lactisole, agonist concentrations on x-axis in mM, 3 independent experiments in duplicates, read-out: EC50 of TAS1R2/TAS1R3 activation (ΔF/F). The protocol:
For the functional characterization of the human sweet taste receptor, we used HEK293 Flp-In T-Rex cells stably transfected with the G protein chimera Gα15Gi3, and the two subunits of the human sweet taste receptor, TAS1R2 and TAS1R3 ([Galindo-Cuspinera et al., 2006]). The G protein chimera and TAS1R2 subunit are constitutively expressed, whereas the expression of the TAS1R3 subunit is inducible through addition of 0.5 µg/mL tetracycline. The experiments were done exactly as before ([Behrens et al., 2017], [Ben Abu et al., 2021]). Briefly, cells were seeded into 96-well plates (black, flat clear bottom) treated with 10 µg/mL poly-D-lysine and grown in low-glucose DMEM supplemented with 10 % fetal bovine serum, 100 U Penicillin/mL, 0.1 mg/mL Streptomycin, 2 mM L-glutamine, at 37 °C, 5 % CO2, saturated air-humidity overnight. About 24 h before the experiment tetracycline was added to induce TAS1R3 expression. Next, cells were loaded for 1 h with Fluo-4 am in the presence of 2.5 mM probenecid and washed twice with C1-buffer (130 mM NaCl, 5 mM KCl, 10 mM HEPES, 1 mM sodium pyruvate, and 2 mM CaCl2, pH 7.4). Then, plates were placed in a fluorometric imaging plate reader (FLIPR^tetra, Molecular Devices, San Jose, CA, United States) for automated compound application and measurement of fluorescence changes. Fluorescence changes of control wells not induced with tetracycline were subtracted from the data. Next, measurements were corrected for background fluorescence. Dose-response relationships of three independent experiments each performed in duplicates were calculated with SigmaPlot 14.0 software using the function f(x) = min+(max − min)/(1+(x/EC50)^nH).
TI-ratings were recorded and analyzed using the software EyeQuestion® 4.11.74 (Logic8 BV, NL) online and MS Excel 16.0 (Microsoft Corporation, USA). The statistical analysis and graphical representation were performed with GraphPad Prism 9.0 for sensory results and with SigmaPlot 14.0 for cell experiments. To evaluate the sensory dose–response effects of ascending sweetener concentration w/o lactisole, an asymmetrical five-parameter curve (Richard́s five-parameter dose–response curve) was fitted. The data are presented as means ± SEM from at least 16 single evaluations. Statistical significance between the different test compounds and concentration-dependent effects was assessed by two-way ANOVAs with Tukey post hoc test using Graph Pad Prism. The normal distribution of the data sets was checked by evaluation of the kurtosis (between −7 to + 7) and the skewness (between −3 to + 3). Equal variance was tested using Levenés test. In case the assumptions of a normal distribution and equal variance were not met, the non-parametric ANOVA on ranks (Kruskal-Wallis Test) with Dunn's post-hoc test without the calculation of interaction was applied. A Pearson product moment correlation was conducted to investigate relationships between sensory results and cell responses of the tested sweeteners.

In a further assay the test system is sweetness. Further details: method as in Schiffman et al., 1995. The conditions noted are these: compared to 5 % sucrose; ref Schiffman et al., 1995; cited from earlier work.

Peptide text beside a SMILES is read from it.

With `CC1=CC(=O)NS(=O)(=O)O1` [acesulfame K], in assay [1], the “mode of inhibition by lactisole (shift of dose-response curve), cell experiments” value is given as “Allosteric inhibition”; the “time until reaching peak activity after agonist application” value (shortened to “time until reaching peak activity”) is 27 s; the “time where signal decreased below 50 % of the maximum signal amplitude, after agonist application” value came to 65 s; the “time until reaching the peak amplitude” value stood at 47 s. Also, in assay [1], the “time where signal decreased below 50 % of the maximum signal amplitude” value was found to be 85 s, the “time of signal decay back to baseline / time signal stayed above initial baseline” value is reported as “about 3 min” and the EC50 was 0.36 ± 0.04 mM.

As for `COc1ccc(CCC(=O)c2c(O)cc(O[C@@H]3O[C@H](CO)[C@@H](O)[C@H](O)[C@H]3O[C@@H]3O[C@@H](C)[C@H](O)[C@@H](O)[C@H]3O)cc2O)cc1O` [NHDC, neohesperidin dihydrochalcone], in the assay on sweetness, the sensory sweetness factor result is “approximately 900”. Also, in assay [1], the “mode of inhibition by lactisole (shift of dose-response curve), cell experiments” value is listed as “competitive inhibition”; the “time until reaching peak activity” value was found to be 27 s; the “time where signal decreased below 50 % of the maximum signal amplitude, after agonist application” value is 87 s; the “time until reaching the peak amplitude” value was determined as 47 s. In addition, in assay [1], the “time where signal decreased below 50 % of the maximum signal amplitude” value stood at 107 s, the “time of signal decay back to baseline / time signal stayed above initial baseline” value is on record as ≥ 6 min and the EC50 came to 0.05 ± 0.01 mM.

With `COC(=O)[C@H](Cc1ccccc1)NC(=O)[C@@H](N)CC(=O)O` [aspartame] (H-Asp-Phe-OMe), in assay [1], the “mode of inhibition by lactisole (shift of dose-response curve), cell experiments” value is reported as “Allosteric inhibition”; the “time until reaching peak activity” value worked out at 23 s; the “time where signal decreased below 50 % of the maximum signal amplitude, after agonist application” value stood at 73 s; the “time until reaching the peak amplitude” value was determined as 43 s. In assay [1], the “time where signal decreased below 50 % of the maximum signal amplitude” value worked out at 93 s, the “time of signal decay back to baseline / time signal stayed above initial baseline” value is listed as ≥ 6 min and the EC50 worked out at 0.33 ± 0.02 mM.

Turning to `O=S(=O)(O)NC1CCCCC1` [cyclamate], in the assay on sweetness, the sensory sweetness factor result was “around 30”. In assay [1], the “mode of inhibition by lactisole (shift of dose-response curve), cell experiments” value is “competitive inhibition”; the “time until reaching peak activity” value turned out to be 19 s; the “time where signal decreased below 50 % of the maximum signal amplitude, after agonist application” value amounted to 73 s; the “time until reaching the peak amplitude” value was 39 s. In assay [1], the “time where signal decreased below 50 % of the maximum signal amplitude” value is 93 s, the “time of signal decay back to baseline / time signal stayed above initial baseline” value is listed as ≥ 6 min and the EC50 is 1.51 ± 0.11 mM.
